1 compound from patent US20220218614A1, “IONIZABLE CATIONIC LIPIDS AND LIPID NANOPARTICLES, AND METHODS OF SYNTHESIS AND USE THEREOF” (Tidal Therapeutics, Inc., priority 2020, published 2022) can be followed below.

“And” between values parts separate entries of the source, which are not always exact repeats. Equal values may be shown once. “Also recorded” adds a separate entry of the source.

The nature of data set [1]: Quant-iT RiboGreen RNA assay: dye accessible and total (Triton) mRNA content, encapsulation. It counts as physicochemical. How it is done: RNA content of the nanoparticles is measured using Thermo Fisher Quant-iT RiboGreen RNA Assay Kit. Dye accessible RNA, which includes both non-incorporated RNA and RNA that is near the surface of the nanoparticle, is measured by diluting the nanoparticles to approximately 1 μg/mL mRNA using HEPES buffered saline, and then adding Quant-iT reagent to the mixture. Total RNA content is measured by diluting the particles to 1 μg/mL mRNA using HEPES buffered saline, disrupting the nanoparticles by heating them to 60° C. for 30 minutes in HEPES buffered saline containing 0.5% Triton, and then adding Quant-It reagent. RNA is quantified by measuring fluorescence at 485/535 nm, and concentration is determined relative to a contemporaneously run RNA standard curve.

A short description of data set [2]: Apparent pKa of LNPs by TNS fluorescent probe. Type of data set: physicochemical. To be noted: LNP made with the named ionizable lipid; pH at 50% of maximum TNS fluorescence. From the text:
This example describes the fluorescent dye based method used for measurement of the apparent pKa of the lipid nanoparticles. Apparent pKa determines the nanoparticle surface charge under physiological pH conditions, typically a pKa value in the endosomal pH range (6-7.4) results in LNPs that are neutral or slightly charged at plasma or the extracellular space (pH 7.4) and become strongly positive under acidic endosomal environments. This positive surface charge drives fusion of the LNP surface with negatively charged endosomal membranes resulting in destabilization and rupture of the endosomal compartment and LNP escape into the cytosolic compartment, a critical step in cytosolic delivery of mRNA and protein expression via engagement of the cells ribosomal machinery.
The apparent pKa of LNPs made using ionizable Lipids 2, 5 (synthesized as described in example 1), 6 and 7 (synthesized using method analogous to Lipid 2, 5, respectively, except using diethyl amine instead of dimethyl amine to incorporate the tertiary amine head group) were determined by 6-(p-Toluidino)-2-naphthalenesulfonic acid (TNS) fluorescence measurement in aqueous buffers covering a range of pH values (pH 4-pH 10). TNS is non-fluorescent when free in solution, but which fluoresces strongly when associated with a positively charged lipid nanoparticle. At a pH values below the pKa of the nanoparticle, positive LNP surface charge results in dye recruitment at the particle interface resulting in TNS fluorescence. At pH values above the LNP pKa no fluorescence is observed. The apparent pKa of the LNP is reported as the pH at which the fluorescence is at 50% of its maximum, as determined using a four-point logistic curve fit.

Data set [3] in a line: Hydrodynamic diameter and polydispersity of LNPs by dynamic light scattering (DLS), Zetasizer. It counts as physicochemical. The procedure:
(§1) Samples of the LNPs produced in Example 2 were characterized to determine the average hydrodynamic diameter, zeta potential, and mRNA content (total and dye-accessible). The hydrodynamic diameter was determined by dynamic light scattering (DLS) using a Zetasizer model ZEN3600 (Malvern Pananalytical, UK). The zeta potential was measured in 5 mM pH 5.5 MES buffer and 5 mM pH 7.4 HEPES buffer by laser Doppler electrophoresis using the Zetasizer.

Data set [4] in a line: Zeta potential of LNPs by laser Doppler electrophoresis in 5 mM pH 5.5 MES and 5 mM pH 7.4 HEPES buffer. The following applies: pH 5.5 MES and pH 7.4 HEPES buffer. Type of data set: physicochemical. The procedure: as §1
Data set [5] relates to primary human T-cells (CD3+ T cells). The data set can be described thus: In vitro LNP transfection of primary human T-cells (GFP, Cy5 or DiI, viability by FACS). Type of data set: cell-based. From the text: This example describes the protocol used for in vitro LNP transfections in primary human T-cells. This method is used to assess LNP in vitro efficacy in relevant target cells (CD3+ T cells) by first transfecting the cells using LNPs loaded with mRNA encoding for a reporter gene, such as GFP mRNA, and then assessing transfection by measuring reporter gene expression by fluorescence-[…] cell sorting (FACS). Additionally, particle association with cells may be observed by in the same assay by labeling individual nanoparticle components, such as the mRNA, with a fluorescent dye, such as Cy5, and then observing cell/dye association by FACS.
CD3+ T cells were isolated from frozen peripheral blood mononuclear cells using an EasySep Human T Cell Isolation Kit on a RoboSep automated cell isolation system from […]. T cells were plated into a flat bottom 96-well plate in RPMI cell culture media supplemented with glutamax, 10% fetal bovine serum, and 40 ng/mL IL2. 100 μL of cell suspension was seeded per well at a density of 1M T cells/mL (100K T cells/well). Cells were allowed to rest for two hours in a 37° C. incubator, and then were transfected by gently adding 10 μL of a 22 μg/mL (by mRNA) nanoparticle suspension, resulting in a final mRNA concentration of 2 μg/mL. Cells were gently mixed with a pipette and then incubated for 24 hours in a 37° C. incubator. After incubation the cells were analyzed using an ThermoFisher Attune NXT flow cytometer. Cy5 was detected using a 638 nm laser with 670/14 nm filter. eGFP was detected using a 488 nm laser and a 530/30 nm filter. Data were analyzed using FlowJo software from BD biosciences. FACS data were first gated to exclude doublets and dead cells and then gated for GFP and Cy5. Gates for GFP+ and Cy5+were set such that a control sample (PBS treated T cells) was <0.1% positive.
CD3+ T cells were isolated from frozen peripheral blood mononuclear cells using an EasySep Human T Cell Isolation Kit on a RoboSep automated cell isolation system from […]. T cells were plated into a round bottom 96-well plate in RPMI cell culture media supplemented with glutamax, 10% fetal bovine serum, pen-strep, and 40 ng/mL IL-2. 100 μL of cell suspension was seeded per well at a density of 1M T cells/mL (100K T cells/well). Cells were allowed to rest for two hours in a 37° C. incubator, and then were transfected by gently adding 10 μL of a 22 μg/mL (by mRNA) nanoparticle suspension, resulting in a final mRNA concentration of 2 μg/mL (unless otherwise noted). Cells were gently mixed with a pipette and then incubated for 24 hours in a 37° C. incubator. After incubation the cells were diluted with FACS buffer (BD 554657) and analyzed using a BD Fortessa flow cytometer. Data were analyzed using FlowJo software from BD biosciences.

Where [6] appears, read: Table 10: Lipid 5 and Lipid 7 LNP, theoretical total mRNA 50 μg/mL.

Take `CCCCC/C=C\C/C=C\CCCCCCCC(=O)OC[C@H](CCN(C)C)OC(=O)CCCCCCC/C=C\C/C=C\CCCCC` [Lipid 5]: in data set [1] (Table 10: Lipid 5 and Lipid 7 LNP), the “% Dye Accessible mRNA” value was determined as 23%. Moreover, the “Measured total (Triton method) mRNA” value was found to be 43 µg/mL in data set [1] (setting [6]); 27 µg/mL in data set [1] (Table 11A: Lipid 5, Lipid 8 and DLn-MC3-DMA LNP, vortexer mixing, theoretical total mRNA 42.5 ug/mL). For the same compound, the “Ribogreen Dye Accessible mRNA” value stood at 10 µg/mL in data set [1] (setting [6]) and 4 µg/mL in data set [1] (Table 11A: vortexer mixing, theoretical total mRNA 42.5 ug/mL). Moreover, the “apparent pKa of LNP (TNS)” value in data set [2] is 6.9 and ~7. In data set [3], the “polydispersity after antibody conjugate insertion” value is under 0.15. Moreover, the “change in particle size and PDI upon conjugate insertion” value in data set [3] (insertion of anti-CD3 hSP34-PEG2k-DSPE conjugate) is on record as “larger change in hydrodynamic diameter (relative to Lipid 7 LNP); also recorded: larger change in hydrodynamic diameter (relative to Lipid 8 LNP)”. Moreover, in data set [4], the “LNP surface charge (zeta potential), in words” value was “positive zeta potential at pH 5.5, and either near neutral or slightly negative charge at pH 7.4”. The “GFP MFI, fold relative to DLn-MC3-DMA” value in data set [5] (0.5 ug/mL and 1.0 ug/mL dose/well) is recorded as over 5 fold. For the same compound, the T-cell viability in data set [5] (all three dose levels (0.125, 0.5 and 2 ug mRNA/mL per well), PBS control about 50%) is on record as 40-45%. In addition, the “GFP protein expression (% GFP+ cells, GFP MFI), in words” value in data set [5] (hSP34 targeted LNP with GFP mRNA, 24 hours) was “Dose dependent expression of GFP protein; also recorded: greater overall protein expression at all three mRNA dose levels; also recorded: outperformed both Lipid 8 and DLn-MC3-DMA”. Also, the “LNP association with cells (% Cy5+/Cy5 MFI or % DiI+/DiI MFI), in words” value in data set [5] (hSP34 targeted LNP, 24 hours) is given as “equally associated with cells”. Further, the “T-cell viability / tolerability, in words” value in data set [5] (hSP34 targeted LNP, 24 hours, dose as in the value) was “well tolerated by T-cells at and below 0.5 μg/mL dose; also recorded: consistently better tolerated by T-cells; also recorded: well tolerated by T-cells at and below 1.0 μg/mL dose; also recorded: better tolerated at higher doses; also recorded: least toxic at 1 ug/mL dose”.
